target: mTOR/GbL/Raptor (mTORC1) (Homo sapiens, UniProt P42345); experiment: mTOR/GbL/Raptor (mTORC1) ELISA assay; type: biochemical; settings: phosphorylation of 4E-BP1; 0.2 nM mTORC1, 10 μM ATP; read-out: IC50 in this assay (mTORC1 ELISA)
In short: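 Human mTORC1 (0.2 nM) phosphorylated 50 nM His-tagged 4E-BP1 with 10 µM ATP in HEPES pH 7.2 containing 10 mM MnCl2, 120 min at ambient temperature. Substrate was captured on Ni-chelate plates; phospho-4E-BP1 was detected by primary antibody and HRP secondary with luminescence.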

Compound	IC50 [nM]
Cc1nc2c(F)c(-c3ccc4c(c3)CN(c3nc(CN(C)C)nc5c3CC(C)(C)CC5)CCO4)ccc2[nH]1 [Example 341, 1-{4-[7-(4-fluoro-2-methyl-1H-benzimidazol-5-yl)-2,3-dihydro-1,4-benzoxazepin-4(5H)-yl]-6,6-dimethyl-5,6,7,8-tetrahydroquinazolin-2-yl}-N,N-dimethylmethanamine]	250 to 1000
CC1(C)CCc2ncnc(N3CCOc4ccc(-c5cnc(N)c(S(=O)(=O)N6CCC6)c5)cc4C3)c2C1 [Example 434, 3-(azetidin-1-ylsulfonyl)-5-[4-(6,6-dimethyl-5,6,7,8-tetrahydroquinazolin-4-yl)-2,3,4,5-tetrahydro-1,4-benzoxazepin-7-yl]pyridine-2-amine]	10 to 50
Cc1nc2ccc(-c3ccc4c(c3)CN(c3ccnc5ccccc35)CCO4)cc2[nH]1 [Example 98, 7-(2-methyl-1H-benzimidazol-6-yl)-4-quinolin-4-yl-2,3,4,5-tetrahydro-1,4-benzoxazepine]	50 to 250
CCNc1nc2ccc(-c3ccc4c(c3)CN(c3nc(CC)nc5cc(OC)ccc35)CCO4)cc2[nH]1 [Example 279, N-ethyl-6-{4-[2-ethyl-7-(methyloxy)quinazolin-4-yl]-2,3,4,5-tetrahydro-1,4-benzoxazepin-7-yl}-1H-benzimidazol-2-amine]	250 to 1000
CN(C)Cc1nc2c(c(N3CCOc4ccc(-c5ccc(N)nc5)cc4C3)n1)CC(C)(C)CC2 [Example 509, 5-(4-{2-[(dimethylamino)methyl]-6,6-dimethyl-5,6,7,8-tetrahydroquinazolin-4-yl}-2,3,4,5-tetrahydro-1,4-benzoxazepin-7-yl)pyridin-2-amine]	50 to 250
CC(C)(O)CC[S+]([O-])c1cc(-c2ccc3c(c2)CN(c2ncnc4c2CC(C)(C)CC4)CCO3)cnc1N (stereo not drawn) [Example 458, 4-({2-amino-5-[4-(6,6-dimethyl-5,6,7,8-tetrahydroquinazolin-4-yl)-2,3,4,5-tetrahydro-1,4-benzoxazepin-7-yl]pyridin-3-yl}sulfinyl)-2-methylbutan-2-ol]	50 to 250
CN(C)C(=O)c1cccc(-c2ccc3c(c2)CN(c2ccnc4ccccc24)CCO3)c1 [Example 134, N,N-dimethyl-3-(4-quinolin-4-yl-2,3,4,5-tetrahydro-1,4-benzoxazepin-7-yl)benzamide]	≥ 2000
CCNc1nc(C)nc(N2CCOc3ccc(-c4cnc5nc(C)[nH]c5c4)cc3C2)c1C [Example 637, N-ethyl-2,5-dimethyl-6-[7-(2-methyl-1H-imidazo[4,5-b]pyridin-6-yl)-2,3-dihydro-1,4-benzoxazepin-4(5H)-yl]pyrimidin-4-amine]	250 to 1000
C=CCc1c(C)nc(CN(C)C)nc1N1CCOc2ccc(-c3cnc4sc(N)nc4c3)cc2C1 [Example 670, 6-(4-{2-[(dimethylamino)methyl]-6-methyl-5-prop-2-en-1-ylpyrimidin-4-yl}-2,3,4,5-tetrahyhdro-1,4-benzoxazepin-7-yl)[1,3]thiazolo[5,4-b]pyridin-2-amine]	10 to 50
Cc1nc2ncc(-c3ccc4c(c3)CN(c3ncnc(N5CCN(C)CC5)c3C)CCO4)cc2[nH]1 [Example 563, 7-(2-methyl-1H-imidazo[4,5-b]pyridin-6-yl)-4-[5-methyl-6-(4-methylpiperazin-1-yl)pyrimidin-4-yl]-2,3,4,5-tetrahydro-1,4-benzoxazepine]	250 to 1000
CCNc1nc2ccc(-c3ccc4c(c3)CN(c3ccnc5ccc(OC)cc35)CCO4)cc2[nH]1 [Example 278, N-ethyl-6-{4-[6-(methyloxy)quinolin-4-yl]-2,3,4,5-tetrahydro-1,4-benzoxazepin-7-yl}-1H-benzimidazol-2-amine]	50 to 250
COc1cc2c(N3CCOc4ccc(-c5ccc6nc(C)[nH]c6c5)cc4C3)ncnc2c(OC)c1OC [Example 57, 7-(2-methyl-1H-benzimidazol-6-yl)-4-[6,7,8-tris(methyloxy)quinazolin-4-tris(methyloxy)quinazolin-4-yl]-2,3,4,5-tetrahydro-1,4-benzoxazepine]	≥ 2000

The next lines start with the values.

IC50 [nM]	Compound
≤ 10	Cc1nc2cc(-c3ccc4c(c3)CN(c3nc(CN5CCCC5)nc5c3CC(C)(C)CC5)CCO4)ccc2[nH]1 [Example 500, 4-[6,6-dimethyl-2-(pyrrolidin-1-ylmethyl)-5,6,7,8-tetrahydroquinazolin-4-yl]-7-(2-methyl-1H-benzimidazol-5-yl)-2,3,4,5-tetrahydro-1,4-benzoxazepine]
50 to 250	CCNc1nc2ccc(-c3ccc4c(c3)CN(c3ccnc5c(F)cccc35)CCO4)cc2[nH]1 [Example 282, N-ethyl-6-[4-(8-fluoroquinolin-4-yl)-2,3,4,5-tetrahydro-1,4-benzoxazepin-7-yl]-1H-benzimidazol-2-amine]
50 to 250	CC1(C)CCc2ncnc(N3CCOc4ccc(-c5cnc(N)nc5)cc4C3)c2C1 [Example 523, 5-[4-(6,6-dimethyl-5,6,7,8-tetrahydroquinazolin-4-yl)-2,3,4,5-tetrahydro-1,4-benzoxazepin-7-yl]pyrimidin-2-amine]
10 to 50	Nc1ccc(-c2ccc3c(c2)CN(c2ccnc4ccccc24)CCO3)cn1 [Example 226, 5-(4-quinolin-4-yl-2,3,4,5-tetrahydro-1,4-benzoxazepin-7-yl)pyridin-2-amine]
250 to 1000	Cc1nc2cc(-c3ccc4c(c3)CN(c3nc(CN(C)C)nc5c3CC(C)(C)CC5)CCO4)c(F)cc2[nH]1 [Example 342, 1-{4-[7-(6-fluoro-2-methyl-1H-benzimidazol-5-yl)-2,3-dihydro-1,4-benzoxazepin-4(5H)-yl]-6,6-dimethyl-5,6,7,8-tetrahydroquinazolin-2-yl}-N,N-dimethylmethanamine]
≥ 2000	COc1ccc2c(N3CCOc4ccc(-c5ccc6[nH]ncc6c5)cc4C3)nc(C)nc2c1 [Example 274, 7-(1H-indazol-5-yl)-4-[2-methyl-7-(methyloxy)quinazolin-4-yl]-2,3,4,5-tetrahydro-1,4-benzoxazepine]
250 to 1000	COc1ccc2c(N3CCOc4ccc(-c5ccc6nc[nH]c6c5)cc4C3)nc(C)nc2c1 [Example 280, 7-(1H-benzimidazol-6-yl)-4-[2-methyl-7-(methyloxy)quinoazolin-4-yl]-2,3,4,5-tetrahydro-1,4-benzoxazepine]
≤ 10	Cc1nc2ncc(-c3ccc4c(c3)CN(c3nc(CN[C@@H](C)C(=O)O)nc5c3CC(C)(C)CC5)CCO4)cc2[nH]1 [Example 596, N-({6,6-dimethyl-4-[7-(2-methyl-1H-imidazo[4,5-b]pyridin-6-yl)-2,3-dihydro-1,4-benzoxazepin-4(5H)-yl]-5,6,7,8-tetrahydroquinazolin-2-yl}methyl)alanine]
50 to 250	Cc1nc(CN(C)C)nc(N2CCOc3ccc(-c4ccc5[nH]c(C(F)F)nc5c4)cc3C2)c1C(C)C [Example 331, 1-[4-{7-[2-(difluoromethyl)-1H-benzimidazol-5-yl]-2,3-dihydro-1,4-benzoxazepin-4(5H)-yl}-6-methyl-5-(1-methylethyl)pyrimidin-2-yl]-N,N-dimethylmethanamine]
10 to 50	CN(C)S(=O)(=O)c1cc(-c2ccc3c(c2)CN(c2ncnc4c2CC(C)(C)CC4)CCO3)cnc1N [Example 380, 2-amino-5-[4-(6,6-dimethyl-5,6,7,8-tetrahydroquinazolin-4-yl)-2,3,4,5-tetrahydro-1,4-benzoxazepin-7-yl]-N,N-dimethylpyridine-3-sulfonamide]
1000 to 2000	COC(=O)Nc1nc2ccc(-c3ccc4c(c3)CN(c3ncnc5cc(OC)c(OC)cc35)CCO4)cc2[nH]1 [Example 111, methyl (6-{4-[6,7-bis(methyloxy)quinazolin-4-yl]-2,3,4,5-tetrahydro-1,4-benzoxazepin-7-yl}-1H-benzimidazol-2-yl)carbamate]
50 to 250	Cc1nc2ccc(-c3ccc4c(c3)CN(c3nc(-c5ccccn5)nc5c3CC(C)(C)CC5)CCO4)cc2[nH]1 [Example 472, 4-(6,6-dimethyl-2-pyridin-2-yl-5,6,7,8-tetrahydroquinazolin-4-yl)-7-(2-methyl-1H-benzimidazol-6-yl)-2,3,4,5-tetrahydro-1,4-benzoxazepine]
250 to 1000	c1ccc2c(N3CCOc4ccc(-c5ccc6scnc6c5)cc4C3)ccnc2c1 [Example 129, 7-(1,3-benzothiazol-5-yl)-4-quinolin-4-yl-2,3,4,5-tetrahydro-1,4-benzoxazepine]
10 to 50	Cc1nc(C)c(CC2CC2)c(N2CCOc3ccc(-c4cnc5nc(C)[nH]c5c4)cc3C2)n1 [Example 492, 4-[5-(cyclopropylmethyl)-2,6-dimethylpyrimidin-4-yl]-7-(2-methyl-1H-imidazo[4,5-b]pyridin-6-yl)-2,3,4,5-tetrahydro-1,4-benzoxazepine]
250 to 1000	CC1(C)CCc2ncnc(N3CCOc4ccc(-c5cnc6nccnc6c5)cc4C3)c2C1 [Example 477, 4-(6,6-dimethyl-5,6,7,8-tetrahydroquinazolin-4-yl)-7-pyrido[2,3-b]pyrazin-7-yl-2,3,4,5-tetrahydro-1,4-benzoxazepine]
≤ 10	Cc1nc2ccc(-c3ccc4c(c3)CN(c3ncnc(C)c3Cc3ccc(F)c(F)c3)CCO4)cc2[nH]1 [Example 89, 4-{5-[(3,4-difluorophenyl)methyl]-6-methylpyrimidin-4-yl}-7-(2-methyl-1H-benzimidazol-6-yl)-2,3,4,5-tetrahydro-1,4-benzoxazepine]
≤ 10	CCNc1nc2ccc(-c3ccc4c(c3)CN(c3ncnc(C)c3Cc3ccc(F)cc3)CCO4)cc2[nH]1 [Example 192, N-ethyl-6-(4-{5-[(4-fluorophenyl)methyl]-6-methylpyrimidin-4-yl}-2,3,4,5-tetrahydro-1,4-benzoxazepin-7-yl)-1H-benzimidazol-2-amine]
10 to 50	Cc1nc2ncc(-c3ccc4c(c3)CN(c3nc(CN5CCC(F)(F)C5)nc5c3CC(C)(C)CC5)CCO4)cc2[nH]1 [Example 503, 4-{2-[(3,3-difluoropyrrolidin-1-yl)methyl]-6,6-dimethyl-5,6,7,8-tetrahydroquinazolin-4-yl}-7-(2-methyl-1H-imidazo[4,5-b]pyridin-6-yl)-2,3,4,5-tetrahydro-1,4-benzoxazepine]

— US8648066B2 (Exelixis, Inc., priority 2009, dated 2014)
